From patent US20230151014A1 (Repare Therapeutics Inc., priority 2020, published 2023) come the findings set out here.

A value given as a limit tells only on which side of the number the result lay.

In the assay the target is T1, recombinant human Myt1 (Homo sapiens, UniProt Q99640).
T1 construct: full length PKMYT1 recombinant human protein expressed in insect cells
T1 sequence (Q99640 1-499): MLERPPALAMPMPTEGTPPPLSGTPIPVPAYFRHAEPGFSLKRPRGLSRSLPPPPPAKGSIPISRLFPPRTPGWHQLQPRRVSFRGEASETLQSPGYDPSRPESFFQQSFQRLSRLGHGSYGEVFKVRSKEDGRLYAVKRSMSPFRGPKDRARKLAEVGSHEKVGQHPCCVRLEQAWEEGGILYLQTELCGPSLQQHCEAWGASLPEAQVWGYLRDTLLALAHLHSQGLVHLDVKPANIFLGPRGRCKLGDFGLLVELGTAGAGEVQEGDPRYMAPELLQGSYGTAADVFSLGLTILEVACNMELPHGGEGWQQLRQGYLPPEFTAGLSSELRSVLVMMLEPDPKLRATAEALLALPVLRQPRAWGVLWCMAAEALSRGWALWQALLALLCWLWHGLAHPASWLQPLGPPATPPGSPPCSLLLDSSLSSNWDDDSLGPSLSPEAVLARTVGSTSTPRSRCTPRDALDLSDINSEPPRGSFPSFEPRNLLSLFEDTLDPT
Put plainly: Myt1 enzymatic assay (ADP-Glo kinase assay, IC50 and % max inhibition). Type of assay: biochemical. The conditions noted are these: recombinant human Myt1 18 nM, ATP 10 μM. As for the experimental part:
Detection of Myt1 kinase activity utilized a recombinant human Myt1 kinase assay measuring the hydrolysis of ATP using a commercially available ADP-Glo Assay (ADP-Glo™ Kinase Assay from Promega, 10 000 assays, #V9102). […] After this, 5 μL of compounds (diluted in reaction buffer to 0.5% DMSO) was added to the microplate and the plate was spun briefly and incubated at 22° C. for 15 minutes. Ultra-Pure Adenosine Triphosphate (ATP) solution (ADP-Glo kit from Promega) was diluted in reaction buffer and 5 μL was added to the microplate, spun down briefly and incubated for 60 minutes at 30° C. […] After the 60-minute incubation, 15 μL of ADP-Glo reagent was added and the plate was spun briefly and sealed and incubated in the dark for 40 minutes at 22° C. […] Luminescence was read using the Envision (250 ms integration). The IC50 and the % max inhibition were calculated for each inhibitor compound tested.
In general terms: ADP-Glo first removes unused ATP, then detects ADP through luciferase.
Take `Cc1ccc(O)cc1-n1c(N)c(C(N)=O)c2nc(-c3ccn(C)n3)ccc21` [Compound 12]: the IC50 turned out to be 988 nM.

`Cc1ccc(O)cc1-n1c(N)c(C(N)=O)c2ncc(C#Cc3cccnc3)nc21` [Compound 160, 6-amino-5-(5-hydroxy-2-methyl-phenyl)-3-[2-(3-pyridyl)ethynyl]pyrrolo[2,3-b]pyrazine-7-carboxamide]: the IC50 amounted to 554 nM.

Take `Cc1ccc(O)c(C)c1-n1cc(C(N)=O)c2nc(C)c(C)nc21` [Compound 209, 5-(3-hydroxy-2,6-dimethyl-phenyl)-2,3-dimethyl-pyrrolo[2,3-b]pyrazine-7-carboxamide]: the IC50 turned out to be 28 nM.

On to `Cc1ccc(O)cc1-n1c(N)c(C(N)=O)c2nc(-c3ccc(N)nc3)ccc21` [Compound 8], for which the IC50 came to 164 nM.

With `Cc1ccc(O)cc1-n1c(N)c(C(N)=O)c2ncc(C#CCN3CCOCC3)nc21` [Compound 163], the IC50 came to 334 nM.

For the molecule `Cc1c(O)ccc(Cl)c1-n1c(N)c(C(N)=O)c2nc(-c3nccs3)cnc21` [Compound 42], the IC50 is under 10 nM.

Take `Cc1ccc(O)cc1-n1c(N)c(C(N)=O)c2ncc(OCc3ccccc3)nc21` [Compound 151]: the IC50 came to 2750 nM.

Consider `Cc1ccc(O)c(C)c1-n1c(N)c(C(N)=O)c2nc(-c3ccn(C)n3)cnc21` [Compound 72], for which the IC50 was 11 nM.

For `Cc1ccc(O)c(C)c1-n1c(N)c(C(N)=O)c2nc(N3CCNCC3)cnc21` [Compound 67], the IC50 worked out at 14 nM.

Turning to `Cc1ccc(O)c(C)c1-n1c(N)c(C(N)=O)c2nc(-c3c[nH]cn3)cnc21` [Compound 65], the IC50 was under 10 nM.

On to `Cc1ccc(O)c(C)c1-n1c(N)c(C(N)=O)c2nc(C(C)(C)F)cnc21` [Compound 178, 6-amino-2-(1-fluoro-1-methyl-ethyl)-5-(3-hydroxy-2,6-dimethyl-phenyl)pyrrolo[2,3-b]pyrazine-7-carboxamide], for which the IC50 was under 10 nM.

For the molecule `C=Cc1nc2c(C(N)=O)c(N)n(-c3c(C)ccc(O)c3C)c2nc1C(F)(F)F` [Compound 102, 6-amino-5-(3-hydroxy-2,6-dimethyl-phenyl)-3-(trifluoromethyl)-2-vinyl-pyrrolo[2,3-b]pyrazine-7-carboxamide], the IC50 came to 13 nM.

`Cc1ccc(-c2cnc3c(n2)c(C(N)=O)c(N)n3-c2c(C)ccc(O)c2C)nc1` [Compound 61]: the IC50 was under 10 nM.

For the molecule `Cc1cnc2c(n1)c(C(N)=O)c(N)n2-c1c(C)ccc(O)c1C` [Compound 285], the IC50 stood at 11 nM.

As for `Cc1ccc(O)cc1-n1c(N)c(C(N)=O)c2nc(CCCC(C)(C)O)ccc21` [Compound 19], the IC50 stood at 527 nM.

Regarding `Cc1cnc2c(C(N)=O)c(N)n(-c3cc(O)ccc3C)c2n1` [Compound 167], the IC50 was 361 nM.

`Cc1ccc(O)c(C)c1-n1c(N)c(C(N)=O)c2nc(-c3cc(C(F)(F)F)ccn3)cnc21` [Compound 36]: the IC50 is 14 nM.

Regarding `Cc1ccc(O)cc1-n1c(N)c(C(N)=O)c2ncc(C#Cc3ccccn3)nc21` [Compound 158], the IC50 was determined as 953 nM.

In the case of `Cc1ccc(O)cc1-n1c(N)c(C(N)=O)c2nc(NCc3ccccc3)cnc21` [Compound 282], the IC50 was 625 nM.

In the case of `Cc1ccc(O)c(C)c1-n1c(N)c(C(N)=O)c2nc(-c3cc4ccccc4n3C)cnc21` [Compound 247], the IC50 stood at 17 nM.

For the molecule `CC(=O)Nc1cccc(-c2cnc3c(C(N)=O)c(N)n(-c4cc(O)ccc4C)c3n2)c1` [Compound 157], the IC50 was 1240 nM.

On to `Cc1ccc(O)cc1-n1c(N)c(C(N)=O)c2ncc(-c3cccc(C(N)=O)c3)nc21` [Compound 156], for which the IC50 is 465 nM.

In the case of `Cc1ccc(O)cc1-n1c(N)c(C(N)=O)c2ncc(OCCN3CCOCC3)nc21` [Compound 154], the IC50 was determined as 6350 nM.

For the molecule `Cc1ccc(O)cc1-n1c(N)c(C(N)=O)c2nc(C(F)(F)F)ccc21` [Compound 213], the concentration for half-maximal inhibition (IC50) came to 195 nM.

For the molecule `Cc1ccc(O)cc1-n1c(N)c(C(N)=O)c2nc(OCc3cccnc3)cnc21` [Compound 284], the IC50 came to 238 nM.

Take `Cc1ccc(O)c(C)c1-n1c(N)c(C(N)=O)c2nc(N3CCCC3)cnc21` [Compound 85]: the IC50 was under 10 nM.

With `Cc1ccc(O)c(C)c1-n1c(N)c(C(N)=O)c2nc(C3=CCC(C(=O)N(C)C)CC3)cnc21` (centres unmarked) [Compound 58], the IC50 was under 10 nM.

`Cc1ccc(O)c(C)c1-n1c(N)c(C(N)=O)c2ncc(C#Cc3ccccn3)nc21` [Compound 227]: the IC50 came out at 50 nM.

For the molecule `Cc1ccc(O)c(C)c1-n1c(N)c(C(N)=O)c2ncc(C#CCN(C)C)nc21` [Compound 226], the IC50 was determined as 12 nM.

For `Cc1ccc(O)c(C)c1-n1c(N)c(C(N)=O)c2nc(-c3ccnc(C(F)(F)F)c3)cnc21` [Compound 35, 6-amino-5-(3-hydroxy-2,6-dimethyl-phenyl)-2-[2-(trifluoromethyl)-4-pyridyl]pyrrolo[2,3-b]pyrazine-7-carboxamide], the IC50 was under 10 nM.

Turning to `Cc1ccc(O)c(C)c1-n1c(N)c(C(N)=O)c2nc(-c3nccs3)c(C#CCN3CCOCC3)nc21` [Compound 216], the IC50 was 76 nM.

With `Cc1ccc(O)c(C)c1-n1c(N)c(C(N)=O)c2nc(N3CCS(=O)(=O)CC3)cnc21` [Compound 75], the IC50 is 11 nM.

For `Cc1ccc(O)cc1-n1c(N)c(C(N)=O)c2ncc(CCCN3CCOCC3)nc21` [Compound 161], the IC50 was found to be 671 nM.

As to `Cc1ccc(O)c(C)c1-n1c(N)c(C(N)=O)c2ncc(C#CC3CC3)nc21` [Compound 228], the IC50 worked out at 21 nM.

Consider `Cc1ccc(O)c(C)c1-n1c(N)c(C(N)=O)c2nc(-c3nccs3)c(C)nc21` [Compound 31, 6-amino-5-(3-hydroxy-2,6-dimethyl-phenyl)-3-methyl-2-thiazol-2-yl-pyrrolo[2,3-b]pyrazine-7-carboxamide], for which the IC50 was under 10 nM.

For `C=C(C)c1cnc2c(n1)c(C(N)=O)c(N)n2-c1c(C)ccc(O)c1C` [Compound 202], the IC50 was under 10 nM.

For `Cc1ccc(O)cc1-n1c(N)c(C(N)=O)c2nc(-c3ccnc(N)c3)ccc21` [Compound 22], the IC50 was found to be 79 nM.

For the molecule `Cc1ccc(O)cc1-n1c(N)c(C(N)=O)c2nc(-c3ccc(N4CCOCC4)nc3)ccc21` [Compound 7], the IC50 stood at 605 nM.

Consider `Cc1ccc(O)c(C)c1-n1c(N)c(C(N)=O)c2nc(-c3cnccn3)cnc21` [Compound 38], for which the IC50 is under 10 nM.

Take `Cc1ccc(O)c(C)c1-n1c(N)c(C(N)=O)c2nc(C#CCc3ccccc3)cnc21` [Compound 1]: the IC50 came to 50 nM.

As for `C=Cc1cnc2c(n1)c(C(N)=O)c(N)n2-c1c(C)ccc(O)c1C` [Compound 259], the IC50 was under 10 nM.

Turning to `Cc1ccc(O)c(C)c1-n1c(N)c(C(N)=O)c2nc(N3CCC(N4CCOCC4)CC3)cnc21` [Compound 74], the IC50 is 14 nM.

`Cc1ccc(O)c(Br)c1-n1c(N)c(C(N)=O)c2cc(Cl)cnc21` [Compound 289]: the IC50 is under 10 nM.

Regarding `Cc1ccc(O)c(C)c1-n1c(N)c(C(N)=O)c2cc(C(C)(C)O)cnc21` [Compound 131], the IC50 is under 10 nM.

Turning to `CCN(CC)C(=O)c1cnc2c(n1)c(C(N)=O)c(N)n2-c1c(C)ccc(O)c1C` [Compound 246], the IC50 was 84 nM.

Take `Cc1ccc(O)c(C)c1-n1c(N)c(C(N)=O)c2nc(N3CC4CCC(C3)O4)cnc21` [Compound 92]: the IC50 was under 10 nM.

On to `Cc1ccc(O)c(C)c1-n1c(N)c(C(N)=O)c2ncc(C#CC3(O)CCC(F)(F)CC3)nc21` [Compound 242, 6-amino-3-[2-(4,4-difluoro-1-hydroxy-cyclohexyl)ethynyl]-5-(3-hydroxy-2,6-dimethyl-phenyl)pyrrolo[2,3-b]pyrazine-7-carboxamide], for which the IC50 was under 10 nM.

With `Cc1ccc(O)cc1-n1c(N)c(C(N)=O)c2ncc(-c3ccccc3)nc21` [Compound 150, 6-amino-5-(5-hydroxy-2-methyl-phenyl)-3-phenyl-pyrrolo[2,3-b]pyrazine-7-carboxamide], the IC50 is 1350 nM.

Regarding `Cc1ccc(O)cc1-n1c(N)c(C(N)=O)c2nc(CCCN3CCOCC3)ccc21` [Compound 18, 2-amino-1-(5-hydroxy-2-methyl-phenyl)-5-(3-morpholinopropyl)pyrrolo[3,2-b]pyridine-3-carboxamide], the IC50 was 1940 nM.

On to `Cc1nc2c(C(N)=O)c(N)n(-c3c(Cl)ccc(O)c3C)c2nc1C` [Compound 168], for which the IC50 was under 10 nM.

Consider `Cc1ccc(O)cc1-n1c(N)c(C(N)=O)c2nc(-c3cccc(F)n3)ccc21` [Compound 25], for which the IC50 amounted to 399 nM.

In the case of `Cc1ccc(O)c(C)c1-n1c(N)c(C(N)=O)c2nc(C(=O)Nc3cccnc3)cnc21` [Compound 243, 6-amino-5-(3-hydroxy-2,6-dimethyl-phenyl)-N2-(3-pyridyl)pyrrolo[2,3-b]pyrazine-2,7-dicarboxamide], the IC50 worked out at 69 nM.

`Cc1ccc(O)c(Cl)c1-n1c(N)c(C(N)=O)c2cc(Cl)cnc21` [Compound 327]: the IC50 is under 10 nM.

What is called IC50 is the concentration needed to halve the response being measured.
